{
  "source": "paper doi:10.1101/2023.08.31.555680v1",
  "about": "(biorxiv, 2023)",
  "key": {"[1]": {"molecular_target": "RspA-splitFAST (assembled NC complex; FRB-RspA(N) + FKBP-RspA(C))", "details": "read-out: Kd,F/C; […] each FRB-N and FKBP-C preassembled with […] rapamycin"}, "RspA-FAST": {"molecular_target": "RspA-FAST", "details": "PBS pH […] presumably; details in supplement"}, "TsiA-FAST": {"molecular_target": "TsiA-FAST", "details": "PBS pH […] presumably; details in supplement"}},
  "data": [
    {"smiles": "Cc1cc(/C=C2\\SC(=S)NC2=O)ccc1O", "note": "[HMBR]", "values": [
      {"measurement": "Kd", "setting": "[1]", "result": "150 ± 10", "unit": "nM"}
    ]},
    {"smiles": "COc1cc(/C=C2\\SC(=S)NC2=O)cc(OC)c1O", "note": "[HBR-3,5DOM]", "values": [
      {"measurement": "Kd", "setting": "RspA-FAST", "result": 74, "unit": "nM"},
      {"measurement": "Kd", "setting": "TsiA-FAST", "result": 60, "unit": "nM"}
    ]}
  ]
}
